The text below walks through data of patent publication US20200368322A1, “METHODS OF IDENTIFYING AND USING AGENTS FOR TREATING DISEASES ASSOCIATED WITH INTESTINAL BARRIER DYSFUNCTION” (Yeda Research and Development Co. Ltd., priority 2018, published 2020).

Experiment [1] concerns Citrobacter rodentium. Nature of the experiment: Citrobacter rodentium infection (bioluminescence, tissue CFU), Example 1. The experiment is classed as in vivo, mouse. The procedure:
(§1) To induce hyperglycemia, streptozotocin (STZ, Sigma-Aldrich) was diluted freshly in PBS and injected i.p. at 100 mg/kg at two consecutive days. Control mice were injected with PBS. Serum glucose measurements were performed using glucose strips (Perrigo). Hyperglycemic mice were used for further experimentation 2-3 weeks after STZ injection). For continuous insulin administration, ALZET osmotic pumps were used. Pumps were implanted subcutaneously in the back of the mice for 4 weeks. Insulin was delivered at 0.25 U/day. 2-deoxyglucose (2-DG) was injected i.p. twice daily at 5 mg per injection as previously described (47). Injections were performed for 10 consecutive days. Leptin antagonist was administered daily by intraperitoneal injection of 25 mg/kg as previously described (18).
Mice were infected by oral gavage with 200 μl of an overnight culture of LB containing approximately 1×10^9 colony-forming units (CFU) of a kanamycin-resistant, luciferase-expressing derivative of C. rodentium DBS100 (ICC180) as previously described (16). For in vivo bioluminescent imaging, mice were anesthetized with Ketamine/Xylazine. Bioluminescence was quantified using an IVIS2000 instrument and Living Image software (Perkin Elmer). For ex vivo luminescence analysis, colons were resected, extensively washed from all fecal matter and immediately imaged. For CFU counts, tissues were collected, weighed and homogenized in 1 ml of sterile PBS. Tissue homogenates were serially diluted in PBS and plated on to LB kanamycin plates, incubated overnight at 37° C., and bacterial colonies were enumerated the following day, normalizing them to the tissue weight.

Experiment [2] in a line: Serum glucose measurement. The experiment is classed as in vivo, mouse. On the procedure: as §1
In experiment [3] the test system is intestinal epithelial adherence junctions. Nature of the experiment: Immunofluorescence staining of colon junctions (E-cadherin, ZO-1). The experiment is classed as in vivo, mouse. The procedure:
(§2) Colon samples were extensively washed and fixed and 4% paraformaldehyde. Samples were washed, paraffin-embedded and sectioned. Paraffin sections were de-paraffinized and antigen-retrieved in 10 mM sodium citrate, pH 6. Samples were incubated in PBS containing 20% (v/v) normal horse serum and 0.2% (v/v) Triton X-100 for 1 h; and then incubated over-night with rabbit anti-ZO-1 (Invitrogen 40-2200) primary antibody or rabbit anti E-cadherin (Cell Signaling 24E10). Sections were washed and incubated for 1 hour with alexa 488-conjugated donkey anti Rabbit antibody. Alternatively, sections were stained with Ki67 to indicate proliferating cells.

For experiment [4], the system named is colonic epithelial barrier. Description: Trans-epithelial flux (Ussing chamber, FITC-dextran). The experiment is classed as in vivo, mouse. The following applies: STZ-treated mice, steady-state conditions. On the procedure: On the day of the assay, 4 kDa fluorescein isothiocyanate (FITC)-dextran was dissolved in phosphate buffered saline (PBS) to a concentration of 80 mg/ml. Mice were fasted for 4 hours prior to gavage with 150 μl dextran. Mice were anesthetized 3 hours following gavage and blood was collected, centrifuged at 1,000×g for 12 min at 4° C. Serum was collected and fluorescence was quantified at an excitation wavelength of 485 nm and emission wavelength of 535 nm.
Epithelial resistance was measured using an Ussing chamber system (Warner Instruments P2300) according to the manufacturer's instructions. In brief, EasyMount chambers were calibrated, colonic tissue was excised from mice and immediately mounted, and voltage clamp recordings were performed. Tissues were maintained at 37° C. in physiological salt solution throughout the duration of the recording.

The subject of another experiment is Salmonella Typhimurium. Nature of the experiment: Salmonella Typhimurium infection. The experiment is classed as in vivo, mouse. The following applies: STZ-treated mice, oral infection. On the procedure:
For oral infections, mice were pretreated with 50 mg/ml streptomycin one day prior to oral gavage of 10^8 CFU of SPI-II-deficient Salmonella Typhimurium (49). For systemic infections, mice were injected 10^4 CFU of Salmonella Typhimurium by intraperitoneal injection as previously described (50). One week after infection, colonization was assessed by bacterial plating on LB streptomycin plates, incubated overnight at 37° C., and bacterial colonies were enumerated the following day, normalizing them to the tissue weight.

For experiment [5], the system named is intestinal epithelial cells. Nature of the experiment: Epithelial turnover (Ki67 staining, cell viability by flow cytometry). The following applies: STZ-treated mice vs controls. The experiment is classed as in vivo, mouse. On the procedure: as §2
For viability measurements, isolated intestinal epithelial cells were stained with EpCAM, CD45 and propidium iodide. Cells were analyzed on a BD-LSRFortessa cytometer. All antibodies were obtained from Biolegend.

The nature of experiment [6]: Intestinal inflammatory state (H&E staining, colonic cytokine gene expression). As to conditions: STZ-treated mice vs controls. It is filed as in vivo, mouse.
The test system of experiment [7] is tight junctions of Caco2 cells. Nature of the experiment: Caco2 tight junction morphology (cingulin or ZO-1 staining, tortuosity). It is filed as cell-based, human. On the procedure:
(§3) CaCo-2 cells were purchased from ATCC. Cells were routinely grown in regular tissue culture medium (DMEM, 10% FCS, penicillin/streptomycin, GlutaMAX). For experiments with differing glucose concentrations, cells were routinely cultured in low-glucose DMEM (1 g/l glucose). Cells were seeded onto 96-well glass-bottom plates coated with either fibronectin or collagen 70 000 cells/well and allowed to grow for 24 hours to form confluent monolayer before indicated treatments.
(§4) For high resolution images of manually selected representative fields, a DeltaVision wide field fluorescent microscope (GE Healthcare) equipped with 40×UPlanFLN or 60×/1.42 PlanApo N oil objective (Olympus) was used. For multi-well plate scanning, the following automated imaging stations were used: DeltaVision microscope with plate scanning regiment, Hermes imaging station (IDEA bio-Medical) or ImagExpress microXL imaging station (Molecular Devices) equipped by 40× air objectives. In all cases in order to cover the curvature of apical surface of epithelial monolayer 5 μm thick z-stack was acquired around the tight junction plane (identified by best focus algorithm) and resulting image was generated as a maximum projection of all optical sections.
Cell images were segmented using Morphological Segmentation ImageJ plug-in and junction tortuosity was calculated as a ratio between junction length and Euclidian distance between its ends.

In experiment [8] the test system is focal adhesions of Caco2 cells. Description: Caco2 cell-matrix focal adhesions (paxillin staining). It is filed as cell-based, human. The following applies: 10 mM acetyl-proline, 1 mM putrescine, 10 mM histamine, 5 mM spermine. On the procedure: as §3, §4
Experiment [9] deals with Caco2 cells. Nature of the experiment: Traction force microscopy. The experiment is classed as cell-based, human. As to conditions: Caco2 islands on polyacrylamide hydrogels, 24 hours treatment. On the procedure:
SoftTrac 6 well plates with pre-made collagen coated 12 kPa hydrogels containing embedded 0.2 μm fluorescent beads were purchased from Matrigen. 200,000 cells per well were plated and allowed to grow for 24 hours to form epithelial islands, treated with the indicated metabolite for another 24 hours and live-imaged using DeltaVision microscope equipped with environmental chamber. After acquisition of cell and fluorescent bead images in steady state conditions, cells were detached with trypsin and imaging of beads was repeated in a relaxed state. Displacement map generation and force calculations were performed using MatLab script described in Butler et al. Am J Physiol Cell Physiol. 2002.

The test system of experiment [10] is Caco2 cells. The following applies: 10 mM histamine.
Description: For immunofluorescent staining, cells were permeabilized with 0.5% Triton ×100 in 3% paraformaldehyde for 3 minutes and fixed with 3% paraformaldehyde for an additional 30 minutes. Tight junction labeling was performed with either rabbit anti-cingulin antibodies or with anti-zo1 mouse monoclonal antibodies (BD Transduction Laboratories). Focal adhesions were labeled with either anti-paxillin mouse monoclonal antibodies (BD Transduction Laboratories) or with anti-zyxin rabbit polyclonal antibodies. Adherens junctions were labeled with anti-β-catenin rabbit polyclonal antibodies (Sigma). The following secondary, fluorescently labeled antibodies (Invitrogen) were used: Alexa Fluor 488 goat anti-mouse or anti-rabbit antibodies for tight junction visualization and Alexa Fluor 647 goat anti-mouse or anti-rabbit antibodies for focal adhesions or adherens junctions visualization. Actin was labeled with TRITC-phalloidin (Sigma) and nuclei with DAPI.
The subject of experiment [11] is microbial pattern recognition receptor (PRR) ligands. Nature of the experiment: Quantification of microbial products at systemic sites (PRR reporter cell lines). It is filed as in vivo, mouse. As to conditions: STZ-treated mice given the agent (insulin 0.25 U per day; 2-DG i.p. twice daily 5 mg). The procedure: as §1, with “(18). The following PRR reporter cell lines were obtained from Invivogen (HEK-Blue TLR and NLR reporter cell lines): TLR2, TLR3, TLR4, TLR5, TLR7, TLR9, NOD1, NOD2. Extracts from spleen, liver, and serum were homogenized and added to reporter cell lines incubated with HEK-Blue detection medium (Invivogen) according to the manufacturer's instructions.” for “(18).”

Another experiment concerns intestinal microbiota. Nature of the experiment: Taxonomic microbiota analysis (16S rDNA sequencing). It is filed as in vivo, mouse. As to conditions: hyperglycemic (STZ-treated) mice, insulin treatment. The procedure:
Frozen fecal samples were processed for DNA isolation using the MoBio PowerSoil kit according to the manufacturer's instructions. For the 16S rRNA gene PCR amplification, 1 ng of the purified fecal DNA was used for PCR amplification. Amplicons spanning the variable region V3/4 of the 16S rRNA gene were generated by using primers: Fwd 5′-[…]-3′ (SEQ ID NO: 1), Rev 5′-[…]-3′ (SEQ ID NO: 2). The reactions were subsequently pooled and cleaned (PCR clean kit, Promega), and the PCR products were then sequenced on an Illumina MiSeq with 500 bp paired-end reads. The reads were then processed using the QIIME analysis pipeline as described (55, 56). In brief, fasta quality files and a mapping file indicating the barcode sequence corresponding to each sample were used as inputs, reads were split by samples according to the barcode, taxonomical classification was performed using the RDP-classifier, and an OTU table was created. Closed-reference OTU mapping was employed using the Greengenes database. Rarefaction was used to exclude samples with insufficient count of reads per sample. Sequences sharing 97% nucleotide sequence identity in the 16S region were binned into operational taxonomic units (97% ID OTUs). For beta-diversity, unweighted UniFrac measurements were plotted according to the two principal coordinates based on 10,000 reads per sample. […]

The subject of experiment [12] is Citrobacter rodentium. The experiment is classed as in vivo, mouse. The following applies: putrescine plus 30 mg/ml taurine in drinking water. The procedure:
For putrescine treatment, mice received putrescine by oral gavage with a dose of 200 mg/kg twice daily for 10 days prior to and during DSS treatment or Citrobacter rodentium infection.
A kanamycin-resistant and luciferase-expressing derivative of Citrobacter rodentium DBS100 (ICC180) was used for infection as previously described (Thaiss et al., Science. 2018 Mar. 23; 359(6382):1376-1383).
Mice were infected with 200 μl solution containing approximately 1×10^9 colony-forming units (CFU) of overnight cultured bacteria by oral gavage. Infection was monitored by enumerating stool CFU and measuring abdominal bioluminescent. For in vivo bioluminescent imaging, mice were anesthetized and bioluminescence was measured using an IVIS2000 instrument and Living Image software (Perkin Elmer). For ex vivo luminescence quantification, the whole colons were dissected, extensively washed from all luminal contents, longitudinally cut open and immediately imaged. For CFU counts, stool or tissues were collected, weighed and homogenized in sterile phosphate buffered saline (PBS−/−). Homogenates were then serially diluted in PBS−/− and plated on LB kanamycin plates, incubated overnight at 37° C. Bacterial CFUs were counted the next day, normalizing them to the stool or tissue weight.

Where [13] appears, read: mice treated with the agent alone.

“Also recorded” adds a separate entry of the source.

Consider `CN(N=O)C(=O)N[C@H]1C(O)O[C@H](CO)[C@@H](O)[C@@H]1O` (mixture of isomers) [STZ, streptozotocin], for which the “C. rodentium infection and systemic spread” value in the experiment on Citrobacter rodentium [1] (setting [13]) is “severe C. rodentium infection and systemic translocation”. Moreover, in experiment [2] (setting [13]), the blood glucose levels result is “hyperglycemia was induced”. In addition, in experiment [3] (STZ-treated mice, steady-state conditions), the “intestinal epithelial adherence junctions” value is recorded as “dysfunction of intestinal epithelial adherence junctions”. Further, the trans-epithelial flux entry in [4] was “enhanced trans-epithelial flux”. Moreover, in the experiment on Salmonella Typhimurium, the “intestinal luminal growth of Salmonella” value is given as “comparable to vehicle-treated controls” and the “systemic colonization by Salmonella” value was “enhanced systemic colonization”. Moreover, in experiment [5], the “epithelial proliferation or cell death” value is recorded as “not affected”. In addition, the “inflammatory state in the intestine” value in experiment [6] was “did not provoke an overt inflammatory state”.
With `NCCc1c[nH]cn1` [histamine], the “recovery of the TJs after washout” value in experiment [7] (CaCo2 cells pretreated 24 hrs with disruptor, then regular culture medium for 24 hours) was “nearly complete recovery of the TJs”. Besides, the “TJ structure after disruptor treatment” value in [7] (CaCo2 cells, 24 hrs, LPS 300 ng/ml, Histamine 10 mM, putrescine 1 mM) is on record as “pronounced TJ disruption”. For the same compound, in experiment [7] (Caco2 cells), the “effect on tight junctions in metabolite screen” value is “Disruption”. The “tight junction disruption phenotype (type 1 zipper-like, type 2 flower-like)” value in experiment [7] (Caco2 cells, known IBD mediators) is listed as “type 2”. Also, the tight junction morphology result in experiment [7] (Caco2 cells, 10 mM acetyl-proline, 1 mM putrescine, 10 mM histamine, 5 mM spermine) is listed as “distortion of tight junctions geometry; also recorded: distortion of tight junction morphology”. Besides, the “tight junction phenotype in combination with LPS” value in experiment [7] (Caco2 cells, type 2 disruptor plus LPS) is “double effect”. The focal adhesions size result in experiment [8] is “increase of focal adhesions size”. The “forces applied to the substrate (cell contractility)” value in the experiment on Caco2 cells [9] is given as “increases cell contractility”. In the experiment with Caco2 cells [10], the apical actin-enriched structures entry is given as “assembly of actin fibers in the same plane where tight junctions are located”.
As to insulin, in the experiment with Citrobacter rodentium [1] (STZ-treated mice given the agent (insulin 0.25 U per day; 2-DG i.p. twice daily 5 mg)), the “enhanced C. rodentium growth and pathogenic translocation / host defense against C. rodentium” value is listed as “prevented”. The “systemic dissemination of microbial products” value in experiment [11] is “prevented”. In addition, in [2] (STZ-treated mice, 0.25 U per day insulin via pumps for 4 weeks), the serum glucose levels entry is “restored normoglycemic levels”. Moreover, the “loss of adherence junction integrity” value in experiment [3] (STZ-treated mice given the agent) is recorded as “prevented”. For the same compound, the “taxonomic change in the configuration of the intestinal microbiota” value in the experiment on intestinal microbiota was “corrected”.
Consider `NCCS(=O)(=O)O` [taurine], for which the “recovery of TJ structure on replacement of disruptors with stabilizer” value in experiment [7] (CaCo2 cells pretreated with LPS, histamine or putrescine, even in the presence of the disruptors) is given as “full recovery of TJ structure”. The “effect on tight junctions in metabolite screen” value in experiment [7] (Caco2 cells) is “Stabilization”. Also, the “tight junction distortion caused by LPS” value in experiment [7] (Caco2 cells, 10 mM taurine, 1 mM tryptamine, 10 mM L-homo-serine, in combination with LPS) is “abolish tight junction distortion caused by LPS treatment alone”. In the experiment with Citrobacter rodentium [12], the “disruptive effect of putrescine in mice with C. rodentium infection” value is “restoration of the disruptive effect of putrescine”.
